# Test results from patent publication US10238688B2, “Combination therapies for bladder cancer” (GENEDIA BIOTECH CO. LTD., priority 2015, dated 2019).
# Legend:
# Assay type in all cases: cell-based, human
# 5637 = assay: MTT cell survival / IC50, 5637 cells; details: for Cell survival (%) / Single drug 4X Cell Survival (%): 5637; for Cell survival (%): Table S3, ng/ml: Pi 40, Pa 160, EH 250, Ci 1500, Mi 200, 1=Ci/Mi, 2=EH/Ci/Mi, 3=Pa/Ci/Mi, 4=Pi/Ci/Mi; for Single drug 4X Cell Survival (%): ng/ml: EH 1000, Ci 6000, Mi 800, Pi 160, Pa 640, Ge 20, EH/Ci/Mi regimen; for Cell survival 72 hours / ACS (%): 5637 cells; for Cell survival 72 hours: Table 4 (A); for ACS (%): Table 4 (B)
# Experimental: (§1) The clinical grade of the chemotherapeutics (NCI Dictionary of Cancer Terms) was provided by the First Affiliated Hospital of Harbin Medical University: Pirarubicin (Pi, Wanle, Shenzhen), Paclitaxel (Pa, Taiji, Sichuan), Adriamycin (Ad, Pfizer, Jiangsu), Epirubicin Hydrochloride (EH, Haizheng, Zhejiang), Hydroxycamptothecin (Hy, Lishizhen, Hubei), Cisplatin (Ci, Haosen, Jiangsu), Gemcitabine (Ge, Haosen, Jiangsu) and Mitomycin (Mi, Haizheng, Zhejiang). The drug induced cell death was determined by a thiazolyl […] (MTT, 490 nm reading) based cell proliferation assay in the cultured cells following treatment by various concentrations of drugs for 72 hours. The relative chemoresistance to each drug of all cell lines was calculated with the lowest IC50 as a reference. The overall chemoresistance of each cell line was described as “chemoresistance index”, the numerator of the total relative IC50 to all the drugs over the number of drugs to rank the overall resistance state of each cell line to the six chemotherapeutics collectively.
# (§2) The relative IC50 (fold) of each drug of all nine cell lines was normalized to the lowest IC50 in the most sensitive cell line (FIG. 2G), to describe the single drug resistance of cell lines. The overall chemoresistance of each cell line, a “chemoresistance index” (the numerator of the total relative IC50 over the number of drugs) (FIG. 2G) were calculated to rank the overall resistance state of each cell line to this six chemotherapeutics.
# (§3) Twenty six-drug combinations at the indicated doses were initially generated through a random number generator (using MATLAB MathWorks©, Natick, Mass., U.S.) (The upper half of Table 1). The cell survival (% over the not drug control) of treated cells was determined and then used for a calculation of the average cumulative cell survival (%, ACS: the sum of cell survival (%) per combination divided by the number of cell lines tested). ACS<30% was used to separate the effective from the not-effective combinations.
# Heat Shock pathway = assay: Cignal Finder dual-luciferase pathway reporter, Heat Shock; parameters: key to Relative activity, Heat Shock reporter: firefly/renilla ratio, background (negative control) subtracted; details: for Relative activity, Heat Shock reporter: luc/Renluc relative to negative control reporter, single drug at 4 folds vs EH/Ci/Mi combination
# Experimental: The pathway analysis was performed with Qiagen's Cignal Finder Pathway Reporter Array systems according to the manufacturer's instructions. The pathway-focused dual-luciferase reporter construct was a mixture of an inducible transcription factor responsive firefly luciferase reporter and constitutively expressing renilla construct. Transcriptional response element (TRE) sequence response elements to each specific transcriptional factor triggered by the different signaling pathways are positioned before the TATA box of firefly luciferase reporter gene. The extent of activity of the reporter reflects the level of activity of the particular signaling pathway. CMV controlled renilla expression vector is co-transfected into the cell as an internal control. Non-inducible reporter construct that lacks the transcriptional factor binding sequence and could not be induced by any transcription factors is used as a negative control. Cells transfected with CMV directed firefly luciferase reporter gene serve as a positive control. Briefly, cells seeded in 6-well plates were transfected with Cignal finder pathway arrays according to the manufacturer's instructions (Qiagen). Then cells were seeded onto 96-well plates. […] After 6 h of incubation with the different drugs at 37° C., cells were lysed and a dual luciferase assay (for firefly and renilla luciferase) was performed using a PromegaGloMax 20/20 illuminometer. The firefly luciferase activities were normalized over the renilla luciferase activities after background activity determined by luciferase activities of negative controls was subtracted. A triple test of cell survival under these drug doses was also performed by MTT assay following 18 h incubation at 37° C. […]
# [1] = system: Cell Cycle/pRb-E2F pathway; assay: Cignal Finder dual-luciferase pathway reporter, Cell Cycle/pRb-E2F; parameters: key to Relative activity, Cell Cycle/pRb-E2F reporter: firefly/renilla ratio, background (negative control) subtracted; details: for Relative activity, Cell Cycle/pRb-E2F reporter: luc/Renluc relative to negative control reporter, single drug at 4 folds vs EH/Ci/Mi combination
# Experimental: The pathway analysis was performed with Qiagen's Cignal Finder Pathway Reporter Array systems according to the manufacturer's instructions. The pathway-focused dual-luciferase reporter construct was a mixture of an inducible transcription factor responsive firefly luciferase reporter and constitutively expressing renilla construct. Transcriptional response element (TRE) sequence response elements to each specific transcriptional factor triggered by the different signaling pathways are positioned before the TATA box of firefly luciferase reporter gene. The extent of activity of the reporter reflects the level of activity of the particular signaling pathway. CMV controlled renilla expression vector is co-transfected into the cell as an internal control. Non-inducible reporter construct that lacks the transcriptional factor binding sequence and could not be induced by any transcription factors is used as a negative control. Cells transfected with CMV directed firefly luciferase reporter gene serve as a positive control. Briefly, cells seeded in 6-well plates were transfected with Cignal finder pathway arrays according to the manufacturer's instructions (Qiagen). Then cells were seeded onto 96-well plates. Ci (6000 ng/mL), Mi (800 ng/mL), or EH (1000 ng/mL) and Ci/Mi/EH combination (Ci, 1500 ng/mL, Mi, 800 ng/mL and EH, 1000 ng/m L) were then added to the cells 24 h post-transfection. After 6 h of incubation with the different drugs at 37° C., cells were lysed and a dual luciferase assay (for firefly and renilla luciferase) was performed using a PromegaGloMax 20/20 illuminometer. The firefly luciferase activities were normalized over the renilla luciferase activities after background activity determined by luciferase activities of negative controls was subtracted. A triple test of cell survival under these drug doses was also performed by MTT assay following 18 h incubation at 37° C. […]
# J-82 = assay: MTT cell survival / IC50, J-82 cells; details: J82; Table S3; ng/ml: Pi 40, Pa 160, EH 250, Ci 1500, Mi 200; 1=Ci/Mi, 2=EH/Ci/Mi, 3=Pa/Ci/Mi, 4=Pi/Ci/Mi
# Experimental: as §1, §2, §3
Structure (SMILES),Cell survival (%) 5637 [%],Single drug 4X Cell Survival (%) 5637 [%],Cell survival 72 hours 5637 [%],ACS (%) 5637 [%],"digitalized pathway activity, Heat Shock (Heat Shock pathway; 5637 cells)","relative drug trigged pathway activity over the no-drug level, Heat Shock (Heat Shock pathway; 5637 cells) [fold]","Relative activity, Heat Shock reporter (Heat Shock pathway; 5637 cells)","relative drug trigged pathway activity over the no-drug level, Heat Shock (Heat Shock pathway; Biu87 cells) [fold]","Relative activity, Heat Shock reporter (Heat Shock pathway; Biu87 cells)","relative drug trigged pathway activity over the no-drug level, Heat Shock (Heat Shock pathway; H-bc cells) [fold]","Relative activity, Heat Shock reporter (Heat Shock pathway; H-bc cells)","digitalized pathway activity, Heat Shock (Heat Shock pathway; SV-HUC-1 cells)","relative drug trigged pathway activity over the no-drug level, Heat Shock (Heat Shock pathway; SV-HUC-1 cells) [fold]","Relative activity, Heat Shock reporter (Heat Shock pathway; SV-HUC-1 cells)","digitalized pathway activity, Heat Shock (Heat Shock pathway; UM-UC-3 cells)","Relative activity, Heat Shock reporter (Heat Shock pathway; UM-UC-3 cells)","relative drug trigged pathway activity over the no-drug level, Heat Shock (Heat Shock pathway; Um-Uc-3 cells) [fold]","relative drug trigged pathway activity over the no-drug level, Cell Cycle/pRb-E2F ([1]; 5637 cells) [fold]","Relative activity, Cell Cycle/pRb-E2F reporter ([1]; 5637 cells)","relative drug trigged pathway activity over the no-drug level, Cell Cycle/pRb-E2F ([1]; Biu87 cells) [fold]",further results
"N.N.[Cl][Pt][Cl] [Ci, (SP-4-2)-diamminedichloroplatinum(II)]",20.32,1.49,2.23,2.23,0 (null (0) if neither of the above holds),0.65,9.18,1.52,2.87,1.19,16.31,0 (null (0) if neither of the above holds),0.93,36.80,0 (null (0) if neither of the above holds),3.42,0.79,1.95,1.77,0.55,"digitalized pathway activity, Heat Shock (Heat Shock pathway; H-bc cells): 0 (null (0) if neither of the above holds); digitalized pathway activity, Cell Cycle/pRb-E2F ([1]; Biu87 cells): 0 (null (0) if neither of the above holds); Relative activity, Cell Cycle/pRb-E2F reporter ([1]; Biu87 cells): 0.31; digitalized pathway activity, Cell Cycle/pRb-E2F ([1]; H-bc cells): 0 (null (0) if neither of the above holds); relative drug trigged pathway activity over the no-drug level, Cell Cycle/pRb-E2F ([1]; H-bc cells): 0.51 fold; Relative activity, Cell Cycle/pRb-E2F reporter ([1]; H-bc cells): 5.86; relative drug trigged pathway activity over the no-drug level, Cell Cycle/pRb-E2F ([1]; SV-HUC-1 cells): 1.71 fold; Relative activity, Cell Cycle/pRb-E2F reporter ([1]; SV-HUC-1 cells): 8.40; Relative activity, Cell Cycle/pRb-E2F reporter ([1]; UM-UC-3 cells): 2.29; relative drug trigged pathway activity over the no-drug level, Cell Cycle/pRb-E2F ([1]; Um-Uc-3 cells): 0.39 fold; Cell survival (%) (J-82): 15.42%"
"COc1cccc2c1C(=O)c1c(O)c3c(c(O)c1C2=O)C[C@@](O)(C(=O)CO)C[C@@H]3[C@@H]1C[C@H](N)[C@@H](O)[C@H](C)O1 [EH, (8R,10S)-10-((2S,4S,5R,6S)-4-amino-5-hydroxy-6-methyltetrahydro-2H-pyran-2-yl)-6,8,11-trihydroxy-8-(2-hydroxyacetyl)-1-methoxy-7,8,9,10-tetrahydrotetracene-5,12-dione]",14.75,2.23,2.23,2.23,0 (null (0) if neither of the above holds),1.04,14.60,1.06,2.01,0.86,3.13,0 (null (0) if neither of the above holds),0.91,36.00,0 (null (0) if neither of the above holds),2.93,0.67,5.15,4.67,3.95,"digitalized pathway activity, Heat Shock (Heat Shock pathway; Biu87 cells): 0 (null (0) if neither of the above holds); digitalized pathway activity, Heat Shock (Heat Shock pathway; H-bc cells): 0 (null (0) if neither of the above holds); Relative activity, Cell Cycle/pRb-E2F reporter ([1]; Biu87 cells): 2.24; digitalized pathway activity, Cell Cycle/pRb-E2F ([1]; H-bc cells): 0 (null (0) if neither of the above holds); relative drug trigged pathway activity over the no-drug level, Cell Cycle/pRb-E2F ([1]; H-bc cells): 1.47 fold; Relative activity, Cell Cycle/pRb-E2F reporter ([1]; H-bc cells): 4.44; relative drug trigged pathway activity over the no-drug level, Cell Cycle/pRb-E2F ([1]; SV-HUC-1 cells): 2.45 fold; Relative activity, Cell Cycle/pRb-E2F reporter ([1]; SV-HUC-1 cells): 12.00; Relative activity, Cell Cycle/pRb-E2F reporter ([1]; UM-UC-3 cells): 17.25; relative drug trigged pathway activity over the no-drug level, Cell Cycle/pRb-E2F ([1]; Um-Uc-3 cells): 2.91 fold; Cell survival (%) (J-82): 45.03%"
"COC12C(COC(N)=O)C3=C(C(=O)C(C)=C(N)C3=O)N1CC1NC12 (centres unmarked) [Mi, [6-Amino-8a-methoxy-5-methyl-4,7-dioxo-1,1a,2,4,7,8,8a,8b-octahydroazireno [2′,3′:3,4]pyrrolo[1,2-a]indol-8-yl]methyl carbamate]",53.16,35.46,35.46,35.46,0 (null (0) if neither of the above holds),1.38,19.47,4.54,8.60,0.3,1.12,0 (null (0) if neither of the above holds),1.01,40.00,0 (null (0) if neither of the above holds),4.03,0.93,2.64,2.40,1.46,"digitalized pathway activity, Cell Cycle/pRb-E2F ([1]; Biu87 cells): 0 (null (0) if neither of the above holds); Relative activity, Cell Cycle/pRb-E2F reporter ([1]; Biu87 cells): 0.83; relative drug trigged pathway activity over the no-drug level, Cell Cycle/pRb-E2F ([1]; H-bc cells): 0.3 fold; Relative activity, Cell Cycle/pRb-E2F reporter ([1]; H-bc cells): 0.92; digitalized pathway activity, Cell Cycle/pRb-E2F ([1]; SV-HUC-1 cells): 0 (null (0) if neither of the above holds); relative drug trigged pathway activity over the no-drug level, Cell Cycle/pRb-E2F ([1]; SV-HUC-1 cells): 1.39 fold; Relative activity, Cell Cycle/pRb-E2F reporter ([1]; SV-HUC-1 cells): 6.80; Relative activity, Cell Cycle/pRb-E2F reporter ([1]; UM-UC-3 cells): 2.17; relative drug trigged pathway activity over the no-drug level, Cell Cycle/pRb-E2F ([1]; Um-Uc-3 cells): 0.37 fold; Cell survival (%) (J-82): 48.38%"
